Read-outs that look alike come from different tables or passages of the source.
Tests used:
CCR4 receptor = target: T1, CCR4 receptor (Homo sapiens, UniProt P51679); test: Inhibition of MDC/TARC/C27 mediated chemotactic response of CCR4-transfected HEK293 cells (Boyden chamber); format: cell-based; settings: chemotactic inhibition rate, compound 1 μM, HEK293 cells transfected with pCDI-CCR4, 5 hours
T1 construct: cDNA fragments of receptor open reading frame were respectively inserted into pcDI; expressed in transfected cells; host or cells: HEK293 cells, transiently transfected by electroporation with pCDI-CCR4
T1 sequence (P51679 1-360): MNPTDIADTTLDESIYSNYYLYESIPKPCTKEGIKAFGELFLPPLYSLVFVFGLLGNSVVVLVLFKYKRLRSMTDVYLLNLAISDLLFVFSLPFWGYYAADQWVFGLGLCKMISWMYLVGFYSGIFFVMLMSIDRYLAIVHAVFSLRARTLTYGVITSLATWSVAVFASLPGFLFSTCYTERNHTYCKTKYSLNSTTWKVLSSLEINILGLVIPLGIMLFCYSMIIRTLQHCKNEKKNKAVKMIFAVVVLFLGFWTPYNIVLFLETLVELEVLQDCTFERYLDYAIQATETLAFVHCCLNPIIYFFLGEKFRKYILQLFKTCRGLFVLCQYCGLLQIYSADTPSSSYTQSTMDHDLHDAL
Description: Whether or not compounds 1-14 of the present invention can inhibit MDC (Peprotech) mediated chemotactic response of HEK293 cells was studied by using Boyden chamber (Neuro Probe, Inc.).
1. Construction of Receptor Expression Plasmid:
cDNA fragments including human chemokine receptor open reading frame were obtained by the following method: CCR4 receptor was cloned from a cDNA library of K562 cells through polymerase chain reaction (PCR). Primers were designed according to the sequence of Gen-Bank™ accession: CCR4 (NM_005508.2). cDNA fragments of receptor open reading frame were respectively inserted into pcDI (vector transformed in the chamber: eukaryotic expression vector obtained by replacing a BglII KpnI fragment of pcDNA3 (Invitrogen Corporation) plasmid with a BglII KpnI fragment of pCI (Promega Corporation) plasmid) expression vector so as to make them effectively express in HEK293 cells.
HEK293 cells were cultured in RPMI 1640 (Life Technologies, Inc.) containing 10% heat-inactivated fetal bovine serum, 100 U/mL penicillin, 100 μg/mL streptomycin. Each 4×10^6 HEK293 cells/400 μL were transiently transfected through electroporation with 15 μg chemokine receptor expression plasmids, under the condition of 120 V for 20 ms, the instrument used being electric pulse generator (Electro Square porator ECM 830, BTX, San Diego, Calif.). After 36-48 hr, chemotactic assay was carried out.
3. The Inhibitory Effect on MDC/TARC/C27 Mediated Chemotactic Response of HEK293 Cells
Chemokines MDC/TARC/C27 were diluted to 10 ng/mL with RPMI1640 (Life Technologies, Inc.), 0.1% BSA (Sigma), and added to lower holes in a 48-hole chemotactic chamber, 27.5 μL each hole. Eukaryotic expression plasmids pCDI-CCR4 were electrically shifted to HEK293 cells, and cultured normally for 36 hr. The cells were digested, re-suspended with RPMI1640, 10% FBS (Life Technologies, Inc.), and subjected to rotary incubation at 37° C. for 6.5 hours. The cells were washed twice with RPMI1640, and suspended in RPMI1640, 0.1% BSA, with a final concentration of 1×10^6/mL. The cells and the candidate compound dissolved in DMSO (Sigma) were subjected to rotary incubation at room temperature for half an hour, the final concentration of the candidate compound being 1 μM, and the final concentration of DMSO being 0.1%, and then added to upper holes in the chemotactic chamber, 55 μL each hole. The two layers were spaced by a polycarbon membrane with pore size of […] (Neuro Probe, Inc.). The chemotactic reaction was carried out in 5% CO2 at 37° C. for 5 hours. There were three groups of control in the experiment, wherein the first group was positive control, in which the transfected cells were directly added to upper holes without incubated with the candidate compound, while chemokines MDC/TARC/C27 were added to lower holes. The second group was negative control, in which the transfected cells were directly added to upper holes without incubated with the candidate compound, while RPMI1640, 0.1% BSA were added to lower holes. The third group was solvent DMSO control of the candidate compound, in which the transfected cells and DMSO were incubated at room temperature, the final concentration of DMSO being 0.1%, while chemokines MDC/TARC/C27 were added to lower holes. After completion of the chemotactic reaction, the membrane was removed, fixed and stained, and, at 400× high magnification, five horizons were randomly selected to count the cells, which were then summed. The ratio of the sum of the numbers of cells in five horizons at high magnification in each experimental group to the sum of the numbers of cells in five horizons at high magnification in the negative control group is obtained as Chemotactic Index (CI). Chemotactic inhibition rate was calculated as follows: […]

mice rhinitis model = test: Mice rhinitis model experiment (OVA-sensitized BALB/c mice); format: in vivo; settings: Example 8 compound 1 μg/Kg, budesonide 1.28 mg/Kg
Protocol: Mice Rhinitis Model Experiment
Female BALB/c mice (6-8 weeks) were sensitized with chicken ovalbumin (OVA, Sigma-Aldrich, St Louis, Mo., USA). The compound of the present invention (for example, the compound of Example 8) was administered to nasal mucosa, at a dose 1 μg/Kg. Glucocorticoid hormonal drug budesonide, a first-line clinical drug, was used as positive control, at a dose 1.28 mg/Kg. Meanwhile, there were provided a normal group wherein the mice were not sensitized and not administered, and an OVA group wherein the mice were sensitized and not administered. The following five indicators were detected: the number of sneezing, the number of nasal scratching within 10 min after administration; IL-4 level in bronchoalveolar lavage fluid; serum IgE level; lung tissue inflammation score. Lung tissue inflammation score was rated according to a single blind method: inflammation was divided into four levels from mild to severe, marked as 0-3 scores: 0 representing no detected inflammation; 1 representing occasional inflammatory cells being visible; 2 representing bronchus or blood vessel being surrounded by eosinophils, but less than five cell layers; 3 representing bronchus or blood vessel being surrounded by a large number of eosinophils, with 5 or more cell layers.

[1] = chemokine C27 10 ng/mL, read-out: C27 inhibition rate
[2] = chemokine MDC 10 ng/mL, read-out: MDC inhibition rate
[3] = chemokine TARC 10 ng/mL, read-out: TARC inhibition rate
[4] = OVA-sensitized female BALB/c mice, nasal mucosa, within 10 min after administration

| Structure (SMILES) | inhibition at 1 µM (CCR4 receptor; [1]) | inhibition at 1 µM (CCR4 receptor; [2]) | inhibition at 1 µM (CCR4 receptor; [3]) | IL-4 (mice rhinitis model; IL-4 level in bronchoalveolar lavage fluid, OVA-sensitized mice) | Nasal scratching (mice rhinitis model; [4]) | Sneezing (mice rhinitis model; [4]) | Inflammation score (mice rhinitis model; lung tissue inflammation score 0-3, single blind, OVA-sensitized mice) | IgE (mice rhinitis model; serum IgE level, OVA-sensitized mice) |
| --- | --- | --- | --- | --- | --- | --- | --- | --- |
| CCC(=O)N1CCN(c2nc(NCc3ccc(Cl)cc3Cl)cc(N(CCOC)CCOC)n2)CC1 [Compound 4, 1-{4-{4-[bis(2-methoxyethyl)amino]-6-(2,4-dichlorobenzylamino)-pyrimidin-2-yl}piperazin-1-yl}propanone] | 34.6% | 54.9% | 45.2% |  |  |  |  |  |
| O=C([C@@H]1CSCCN1)N1CCN(c2nc(Cl)cc(NCc3ccc(Cl)cc3Cl)n2)CC1 [Compound 9, (R)-{4-{4-chloro-6-[(2,4-dichlorobenzyl)amino]pyrimidin-2-yl}piperazin-1-yl}(thiomorpholin-3-yl)methanone] | 39.5% | 22.2% | 10.4% |  |  |  |  |  |
| CCC(=O)N1CCN(c2nc(NCc3ccc(Cl)cc3Cl)cc(N(C)CC(OC)OC)n2)CC1 [Compound 1, 1-{4-{4-[(2,4-dichlorobenzyl)amino]-6-[(2,2-dimethoxyethyl)methylamino]pyrimidin-2-yl}piperazin-1-yl}propanone] | 25.3% | 36.3% | 46.4% |  |  |  |  |  |
| COC(CN(C)c1cc(NCc2ccc(Cl)cc2Cl)nc(N2CCN(C(=O)CCSC)CC2)n1)OC [Compound 3, 1-{4-{4-[(2,4-dichlorobenzyl)amino]-6-[(2,2-dimethoxyethyl)methylamino]pyrimidin-2-yl}piperazin-1-yl}-3-methylthiopropanone] | 43.9% | 35.5% | 58.3% |  |  |  |  |  |
| CCCC1O[C@@H]2C[C@H]3[C@@H]4CCC5=CC(=O)C=C[C@]5(C)[C@H]4[C@@H](O)C[C@]3(C)[C@]2(C(=O)CO)O1 (some centres unmarked) [Budesonide, budesonide, reference compound] |  |  |  | 2.9 ± 1.5 pg/mL | 12.0 ± 1.3 times/10 mins | 31.7 ± 4.0 times/10 mins | 1.5 ± 0.6 | 2822 ± 51 ng/mL |
| COCCN(CCOC)c1cc(NCc2ccc(Cl)cc2Cl)nc(N2CCN(C(=O)C(C)C)CC2)n1 [Compound 5, 1-{4-{4-[bis(2-methoxyethyl)amino]-6-(2,4-dichlorobenzylamino)-pyrimidin-2-yl}piperazin-1-yl}-2-methylpropanone] | 40.1% | 54.5% | 39.1% |  |  |  |  |  |
| COCCN(CCOC)c1cc(NCc2ccc(Cl)cc2Cl)nc(N2CCN(C(=O)CCSC)CC2)n1 [Compound 6, 1-{4-{4-[bis(2-methoxyethyl)amino]-6-(2,4-dichlorobenzylamino)-pyrimidin-2-yl}piperazin-1-yl}-3-methylthiopropanone] | 51.2% | 19.4% | 55.7% |  |  |  |  |  |
| COC(CN(C)c1cc(NCc2ccc(Cl)cc2Cl)nc(N2CCN(C(=O)C(C)C)CC2)n1)OC [Compound 2, 1-{4-{4-[(2,4-dichlorobenzyl)amino]-6-[(2,2-dimethoxyethyl)methylamino]pyrimidin-2-yl}piperazin-1-yl}-2-methylpropanone] | 39% | 36.1% | 41.7% |  |  |  |  |  |
| COCCN(CCOC)c1cc(NCc2ccc(Cl)cc2Cl)nc(N2CCN(C(=O)C3CCCCC3)CC2)n1 [Compound 7, {4-{4-[bis(2-methoxyethyl)amino]-6-(2,4-dichlorobenzylamino)-pyrimidin-2-yl}piperazin-1-yl}cyclohexylmethanone] | 37.9% | 30% | 51% |  |  |  |  |  |

Further lines, with some results ahead:

| inhibition at 1 µM (CCR4 receptor; [1]) | inhibition at 1 µM (CCR4 receptor; [2]) | inhibition at 1 µM (CCR4 receptor; [3]) | Structure (SMILES) | IL-4 (mice rhinitis model; IL-4 level in bronchoalveolar lavage fluid, OVA-sensitized mice) | Nasal scratching (mice rhinitis model; [4]) | Sneezing (mice rhinitis model; [4]) | Inflammation score (mice rhinitis model; lung tissue inflammation score 0-3, single blind, OVA-sensitized mice) | IgE (mice rhinitis model; serum IgE level, OVA-sensitized mice) |
| --- | --- | --- | --- | --- | --- | --- | --- | --- |
| 16.7% | 48.8% | 35.2% | CCCN1CCN(c2nc(NCc3ccc(Cl)cc3Cl)c3cccnc3n2)CC1 [Compound 13, 4-[(2,4-dichlorobenzyl)amino]-2-(4-propylpiperazin-1-yl)pyrido[2,3-d]pyrimidine] |  |  |  |  |  |
| 6.17% | 57.2% | 61.1% | O=C(C1CCCCC1)N1CCN(c2nc(NCc3ccc(Cl)cc3Cl)c3cccnc3n2)CC1 [Compound 12, cyclohexyl{4-{4-[(2,4-dichlorobenzyl)amino]pyrido[2,3-d]pyrimidin-2-yl}piperazin-1-yl}methanone] |  |  |  |  |  |
| 35.2% | 32.3% | 61.4% | CC(C)C(=O)N1CCN(c2nc(NCc3ccc(Cl)cc3Cl)c3cccnc3n2)CC1 [Compound 11, 1-{4-{4-[(2,4-dichlorobenzyl)amino]pyrido[2,3-d]pyrimidin-2-yl}piperazin-1-yl}-2-methylpropanone] |  |  |  |  |  |
| 38.3% | 32.3% | 59.8% | CCC(=O)N1CCN(c2nc(NCc3ccc(Cl)cc3Cl)c3cccnc3n2)CC1 [Compound 10, 1-{4-{4-[(2,4-dichlorobenzyl)amino]pyrido[2,3-d]pyrimidin-2-yl}piperazin-1-yl}propanone] |  |  |  |  |  |
| 30.5% | 62.1% | 73.6% | O=C([C@@H]1CSCCN1)N1CCN(c2nc(NCc3ccc(Cl)cc3Cl)c3cccnc3n2)CC1 [Compound 14, (R)-{4-{4-[(2,4-dichlorobenzyl)amino]pyrido[2,3-d]pyrimidin-2-yl}piperazin-1-yl}(thiomorpholin-3-yl)methanone] |  |  |  |  |  |
